# Columns and labels:
# human tumor cell line = assay: Cytotoxicity testing, cytopathic effect; assay type: cell-based; design: key: 1: slight change in morphology vs. control; 2: occasional rounding, vacuolization, or granularity; 3: rounding, vacuolization, detachment of 50% of cells; 4: destruction of monolayer
# Experimental: (§1) Cytotoxicity Testing of Basiliskamide A: Serial dilutions of basiliskamide A were prepared in cell culture medium and tested for toxicity for normal human fibroblast cells and for human tumor cell line. […] The appearance of the cells was assessed after 48 hours exposure to the compounds. Basiliskamide produced no cytotoxicity for normal human fibroblast cells at concentrations less than 100 μg/ml compared to amphotericin B (ampho) which was toxic at concentrations as low as 25 μg/ml.
# [1] = tested on: normal human fibroblast cells; assay: Cytotoxicity testing, cytopathic effect; assay type: cell-based; design: key to Cytopathic Effect (48 hours): 1: slight change in morphology vs. control; 2: occasional rounding, vacuolization, or granularity; 3: rounding, vacuolization, detachment of 50% of cells; 4: destruction of monolayer; conditions: for Cytopathic Effect (48 hours): Human Fibroblast
# Experimental: as §1
# [2] = tested on: Clinical Isolates of Candida albicans; assay: Macrobroth dilution against 7 clinical isolates
# Candida albicans [3] = assay: Antifungal agar dilution
# M. avium-intracellulare = assay type: cell-based, Mycobacterium avium-infracellulare; conditions: agar dilution
# Aspergillus fumigatus [4] = assay: Antifungal macrobroth dilution (NCCLS M27-A); conditions: read-out: Minimal Inhibitory Concentration
# [5] = tested on: Mycobacterium tuberculosis; assay: microbe, parasite or virus in culture; conditions: read-out: Minimal Inhibitory Concentration
# Experimental: (§2) Antimycobacterial Activity of the Basiliskamides: The Basiliskamides were tested for antimycobacierial activity using a standardized agar dilution method (Underlied, C B and Salfinger, S. 1995. In Manual of Clinical Microbiology, Murray, Baron, Pfaller, Tenover, Yolken (Eds.), ASM Press, page 1395-1404).
# Trichophyton rubrum [6] = assay: Antifungal agar dilution; conditions: read-out: Minimal Inhibitory Concentration
# Candida albicans [7] = assay: Antifungal macrobroth dilution (NCCLS M27-A); conditions: read-out: Minimal Inhibitory Concentration
# Trichophyton rubrum [8] = assay: Antifungal macrobroth dilution (NCCLS M27-A); conditions: read-out: Minimal Inhibitory Concentration
# [9] = tested on: Mycobacterium tuberculosis; conditions: agar dilution
# Experimental: as §2
# Aspergillus fumigatus [10] = assay: Antifungal agar dilution
# [11] = read-out: Minimal Inhibitory Concentration
smiles,measurement,setting,value
C[C@@H]1[C@H](O)[C@@H](C)/C=C/C=C/C=C/C=C/C=C/C=C/C=C/[C@H](O[C@@H]2O[C@H](C)[C@@H](O)[C@H](N)[C@@H]2O)C[C@@H]2O[C@](O)(C[C@@H](O)C[C@@H](O)[C@H](O)CC[C@@H](O)C[C@@H](O)CC(=O)O[C@H]1C)C[C@H](O)[C@H]2C(=O)O [Amphotericin B],Cytopathic Effect (48 hours),human tumor cell line; 0.78 μg/ml,0
same,Cytopathic Effect (48 hours),human tumor cell line; 1.57 μg/ml,0
same,Cytopathic Effect (48 hours),human tumor cell line; 3.12 μg/ml,0
same,Cytopathic Effect (48 hours),human tumor cell line; 6.25 μg/ml,0
same,Cytopathic Effect (48 hours),human tumor cell line; 12.5 μg/ml,0
same,Cytopathic Effect (48 hours),human tumor cell line; 25 μg/ml,1
same,Cytopathic Effect (48 hours),human tumor cell line; 50 μg/ml,3
same,Cytopathic Effect (48 hours),human tumor cell line; 100 μg/ml,4
same,Cytopathic Effect (48 hours),[1]; 0.78 μg/ml,0
same,Cytopathic Effect (48 hours),[1]; 1.57 μg/ml,0
same,Cytopathic Effect (48 hours),[1]; 3.12 μg/ml,0
same,Cytopathic Effect (48 hours),[1]; 6.25 μg/ml,0
same,Cytopathic Effect (48 hours),[1]; 12.5 μg/ml,1
same,Cytopathic Effect (48 hours),[1]; 25 μg/ml,2
same,Cytopathic Effect (48 hours),[1]; 50 μg/ml,2
same,Cytopathic Effect (48 hours),[1]; 100 μg/ml,4
same,concentrations at which toxic,"[1]; normal human fibroblast cells, 48 hours exposure",≥ 25000 ng/mL
same,Minimal Inhibitory Concentration,[2]; C. albicans clinical isolate 8167,0.5 µg/mL
same,Minimal Inhibitory Concentration,[2]; C. albicans clinical isolate 8362,0.5 µg/mL
same,Minimal Inhibitory Concentration,[2]; C. albicans clinical isolate 8363,0.5 µg/mL
same,Minimal Inhibitory Concentration,[2]; C. albicans clinical isolate 8364,0.5 µg/mL
same,Minimal Inhibitory Concentration,[2]; C. albicans clinical isolate 8365,0.5 µg/mL
same,Minimal Inhibitory Concentration,[2]; C. albicans clinical isolate 8366,0.5 µg/mL
same,Minimal Inhibitory Concentration,[2]; C. albicans clinical isolate 8367,0.5 µg/mL
CC[C@@H](C)[C@H](O)[C@H](C)[C@@H](C/C=C/C=C\C(N)=O)OC(=O)/C=C/c1ccccc1 [Basiliskamide B],activity relative to YL-03709B-A,"Candida albicans [3]; agar dilution, from Table 5",significantly more active
same,MIC,Candida albicans [3]; [11],3.1 µg/mL
same,MIC,"M. avium-intracellulare; Mycobacterium, M. avium-intracellulare, read-out: Minimal Inhibitory Concentration",> 100 µg/mL
same,activity against M. avium-intracellulare (in words),M. avium-intracellulare,relatively inactive
same,MIC,Aspergillus fumigatus [4],≥ 32 µg/mL
same,MIC,[5],50 µg/mL
same,MIC,Trichophyton rubrum [6],5 µg/mL
same,MIC,Candida albicans [7],≥ 32 µg/mL
same,MIC,Trichophyton rubrum [8],4 µg/mL
same,activity against M. tuberculosis (in words),[9],have activity
same,activity relative to YL-03709B-A,"Aspergillus fumigatus [10]; agar dilution, from Table 5",significantly more active
same,MIC,Aspergillus fumigatus [10]; [11],5 µg/mL
